Earlier results on two compounds are cited in US12637513B2, “Method of treating cancer by administering an inhibitor of erythropoietin receptor activity comprising either erythropoietin receptor or erythropoietin protein” (ImmunEdge, Inc., priority 2022, dated 2026).

The subject of data set [1] is Hypoxia-Inducible Factor (HIF). The conditions noted are these: target cell empty; cited from earlier work.
For data set [2], the target named is PHD2 (Homo sapiens, UniProt Q9GZT9). The conditions noted are these: target PHD2; cited from earlier work.
Chain of PHD2 (Q9GZT9 whole entry): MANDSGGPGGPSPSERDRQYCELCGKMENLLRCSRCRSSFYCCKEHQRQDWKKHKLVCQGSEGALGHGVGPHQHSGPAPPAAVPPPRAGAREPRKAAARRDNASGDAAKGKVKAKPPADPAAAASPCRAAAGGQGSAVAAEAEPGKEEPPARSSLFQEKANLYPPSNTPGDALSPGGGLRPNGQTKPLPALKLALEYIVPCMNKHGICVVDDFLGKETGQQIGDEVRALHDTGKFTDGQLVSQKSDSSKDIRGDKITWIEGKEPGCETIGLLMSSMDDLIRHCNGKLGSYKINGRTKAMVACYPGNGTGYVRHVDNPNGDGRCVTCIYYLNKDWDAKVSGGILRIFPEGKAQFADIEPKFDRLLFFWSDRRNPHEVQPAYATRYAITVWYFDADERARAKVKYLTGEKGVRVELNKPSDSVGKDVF

In the case of `CN1CCN(C(=O)COc2ccc(C34CC5CC(CC(C5)C3)C4)cc2)CC1` [IDF-11774], the IC50 in data set [1] was 3650 nM.

Turning to `O=C(O)CNC(=O)c1c(O)c2ccccc2n(Cc2ccccc2)c1=O` [IOX2], the IC50 in data set [2] is 21 nM.

In general, IC50 refers to the concentration that gives 50% inhibition.
